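Five compound concentrations were applied to cells in 96-well plates for 48 hours; endpoints were derived by simple linear interpolation of the resulting dose-response curve. TGI marks complete inhibition of growth.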
Legend:
Experiment in all cases: NCI-60 cell line screen, 48 h
786-0 renal = test system: 786-0 renal
A498 renal = test system: A498 renal
A549 NSCLC = test system: A549 NSCLC
ACHN renal = test system: ACHN renal
BT-549 breast = test system: BT-549 breast
CAKI-1 renal = test system: CAKI-1 renal
CCRF-CEM leukemia = test system: CCRF-CEM leukemia
COLO 205 colon = test system: COLO 205 colon
DLD-1 colon = test system: DLD-1 colon
DMS 114 small cell lung = test system: DMS 114 small cell lung
DMS 273 small cell lung = test system: DMS 273 small cell lung
DU-145 prostate = test system: DU-145 prostate
EKVX NSCLC = test system: EKVX NSCLC
HCC-2998 colon = test system: HCC-2998 colon
HCT-116 colon = test system: HCT-116 colon
HCT-15 colon = test system: HCT-15 colon
HL-60(TB) leukemia = test system: HL-60(TB) leukemia
HOP-18 NSCLC = test system: HOP-18 NSCLC
HOP-62 NSCLC = test system: HOP-62 NSCLC
HOP-92 NSCLC = test system: HOP-92 NSCLC
HS 578T breast = test system: HS 578T breast
HT29 colon = test system: HT29 colon
IGROV1 ovarian = test system: IGROV1 ovarian
K-562 leukemia = test system: K-562 leukemia
KM12 colon = test system: KM12 colon
KM20L2 colon = test system: KM20L2 colon
LOX IMVI melanoma = test system: LOX IMVI melanoma
LXFL 529 NSCLC = test system: LXFL 529 NSCLC
M14 melanoma = test system: M14 melanoma
M19-MEL melanoma = test system: M19-MEL melanoma
MALME-3M melanoma = test system: MALME-3M melanoma
MDA-MB-231 breast = test system: MDA-MB-231 breast
MDA-MB-435 = test system: MDA-MB-435
MDA-N = test system: MDA-N
MOLT-4 leukemia = test system: MOLT-4 leukemia
NCI-H226 lung = test system: NCI-H226 lung
NCI-H23 lung = test system: NCI-H23 lung
NCI-H460 lung = test system: NCI-H460 lung
NCI-H522 lung = test system: NCI-H522 lung
OVCAR-3 ovarian = test system: OVCAR-3 ovarian
OVCAR-4 ovarian = test system: OVCAR-4 ovarian
OVCAR-5 ovarian = test system: OVCAR-5 ovarian
OVCAR-8 ovarian = test system: OVCAR-8 ovarian
PC-3 prostate = test system: PC-3 prostate
RPMI-8226 leukemia = test system: RPMI-8226 leukemia
RXF 393 renal = test system: RXF 393 renal
SF-268 CNS = test system: SF-268 CNS
SF-295 CNS = test system: SF-295 CNS
SF-539 CNS = test system: SF-539 CNS
SK-MEL-2 melanoma = test system: SK-MEL-2 melanoma
SK-MEL-28 melanoma = test system: SK-MEL-28 melanoma
SK-MEL-5 melanoma = test system: SK-MEL-5 melanoma
SK-OV-3 ovarian = test system: SK-OV-3 ovarian
SN12C renal = test system: SN12C renal
SNB-19 CNS = test system: SNB-19 CNS
SNB-75 CNS = test system: SNB-75 CNS
SR leukemia = test system: SR leukemia
SW-620 colon = test system: SW-620 colon
T-47D breast = test system: T-47D breast
TK-10 renal = test system: TK-10 renal
U251 CNS = test system: U251 CNS
UACC-257 melanoma = test system: UACC-257 melanoma
UACC-62 melanoma = test system: UACC-62 melanoma
UO-31 renal = test system: UO-31 renal
XF 498 CNS = test system: XF 498 CNS
MCF7 breast = test system: MCF7 breast
NCI/ADR-RES ovarian = test system: NCI/ADR-RES ovarian
SNB-78 CNS = test system: SNB-78 CNS

CCOC(=O)C(CC(C)C)NC(=O)C(N)Cc1ccc(N(CCCl)CCCl)cc1 (stereo not given)
TGI (786-0 renal): 6.81 µM
TGI (A498 renal): 30.9 µM
TGI (A549 NSCLC): 45.1 µM
TGI (ACHN renal): 1.81 µM
TGI (BT-549 breast): 46 µM
TGI (CAKI-1 renal): 15.3 µM
TGI (CCRF-CEM leukemia): 13 µM
TGI (COLO 205 colon): 12.1 µM
TGI (DLD-1 colon): 8.27 µM
TGI (DMS 114 small cell lung): 7.54 µM
TGI (DMS 273 small cell lung): 13.2 µM
TGI (DU-145 prostate): 47.1 µM
TGI (EKVX NSCLC): 37.5 µM
TGI (HCC-2998 colon): 20 µM
TGI (HCT-116 colon): 17.9 µM
TGI (HCT-15 colon): 11.5 µM
TGI (HL-60(TB) leukemia): 2.51 µM
TGI (HOP-18 NSCLC): 16.1 µM
TGI (HOP-62 NSCLC): 22 µM
TGI (HOP-92 NSCLC): 11.2 µM
TGI (HS 578T breast): 44.5 µM
TGI (HT29 colon): 11.6 µM
TGI (IGROV1 ovarian): 31.6 µM
TGI (K-562 leukemia): 41.6 µM
TGI (KM12 colon): 20.1 µM
TGI (KM20L2 colon): 13.5 µM
TGI (LOX IMVI melanoma): 0.278 µM
TGI (LXFL 529 NSCLC): 8.29 µM
TGI (M14 melanoma): 11.7 µM
TGI (M19-MEL melanoma): 4.57 µM
TGI (MALME-3M melanoma): 3.84 µM
TGI (MDA-MB-231 breast): 32.3 µM
TGI (MDA-MB-435): 46.2 µM
TGI (MDA-N): 26.1 µM
TGI (MOLT-4 leukemia): 1.68 µM
TGI (NCI-H226 lung): 29.5 µM
TGI (NCI-H23 lung): 7.09 µM
TGI (NCI-H460 lung): 0.426 µM
TGI (NCI-H522 lung): 8.53 µM
TGI (OVCAR-3 ovarian): 4.72 µM
TGI (OVCAR-4 ovarian): 3.1 µM
TGI (OVCAR-5 ovarian): 33.7 µM
TGI (OVCAR-8 ovarian): 24.9 µM
TGI (PC-3 prostate): 32.2 µM
TGI (RPMI-8226 leukemia): > 64.7 µM
TGI (RXF 393 renal): 5.12 µM
TGI (SF-268 CNS): 16.8 µM
TGI (SF-295 CNS): 21.9 µM
TGI (SF-539 CNS): 9.59 µM
TGI (SK-MEL-2 melanoma): 11.8 µM
TGI (SK-MEL-28 melanoma): 13.7 µM
TGI (SK-MEL-5 melanoma): 19.8 µM
TGI (SK-OV-3 ovarian): 16.6 µM
TGI (SN12C renal): 19.7 µM
TGI (SNB-19 CNS): 35.5 µM
TGI (SNB-75 CNS): 15.9 µM
TGI (SR leukemia): 4.69 µM
TGI (SW-620 colon): 35.7 µM
TGI (T-47D breast): 15.1 µM
TGI (TK-10 renal): 25.3 µM
TGI (U251 CNS): 22.4 µM
TGI (UACC-257 melanoma): 26.9 µM
TGI (UACC-62 melanoma): 9.56 µM
TGI (UO-31 renal): 5.97 µM
TGI (XF 498 CNS): 3.87 µM

CCOC(=O)Nc1nc(-c2ccccc2)c(C)s1
TGI (786-0 renal): > 100 µM
TGI (A498 renal): > 100 µM
TGI (A549 NSCLC): > 100 µM
TGI (ACHN renal): > 100 µM
TGI (BT-549 breast): > 100 µM
TGI (CAKI-1 renal): > 100 µM
TGI (CCRF-CEM leukemia): > 100 µM
TGI (COLO 205 colon): > 100 µM
TGI (DU-145 prostate): > 100 µM
TGI (EKVX NSCLC): > 100 µM
TGI (HCC-2998 colon): > 100 µM
TGI (HCT-116 colon): > 100 µM
TGI (HCT-15 colon): > 100 µM
TGI (HL-60(TB) leukemia): 90.5 µM
TGI (HOP-62 NSCLC): > 100 µM
TGI (HOP-92 NSCLC): 90.5 µM
TGI (HS 578T breast): > 100 µM
TGI (HT29 colon): > 100 µM
TGI (IGROV1 ovarian): > 100 µM
TGI (K-562 leukemia): > 100 µM
TGI (KM12 colon): > 100 µM
TGI (LOX IMVI melanoma): > 100 µM
TGI (M14 melanoma): > 100 µM
TGI (MALME-3M melanoma): > 100 µM
TGI (MCF7 breast): > 100 µM
TGI (MDA-MB-231 breast): > 100 µM
TGI (MDA-MB-435): > 100 µM
TGI (MDA-N): > 100 µM
TGI (MOLT-4 leukemia): 45.5 µM
TGI (NCI-H226 lung): > 100 µM
TGI (NCI-H23 lung): > 100 µM
TGI (NCI-H460 lung): > 100 µM
TGI (NCI-H522 lung): > 100 µM
TGI (NCI/ADR-RES ovarian): > 100 µM
TGI (OVCAR-3 ovarian): > 100 µM
TGI (OVCAR-4 ovarian): > 100 µM
TGI (OVCAR-5 ovarian): > 100 µM
TGI (OVCAR-8 ovarian): > 100 µM
TGI (PC-3 prostate): > 100 µM
TGI (RPMI-8226 leukemia): > 100 µM
TGI (RXF 393 renal): > 100 µM
TGI (SF-268 CNS): > 100 µM
TGI (SF-295 CNS): > 100 µM
TGI (SF-539 CNS): > 100 µM
TGI (SK-MEL-2 melanoma): > 100 µM
TGI (SK-MEL-28 melanoma): > 100 µM
TGI (SK-MEL-5 melanoma): > 100 µM
TGI (SK-OV-3 ovarian): > 100 µM
TGI (SN12C renal): > 100 µM
TGI (SNB-19 CNS): > 100 µM
TGI (SNB-75 CNS): > 100 µM
TGI (SR leukemia): > 100 µM
TGI (SW-620 colon): > 100 µM
TGI (T-47D breast): > 100 µM
TGI (TK-10 renal): > 100 µM
TGI (U251 CNS): > 100 µM
TGI (UACC-257 melanoma): > 100 µM
TGI (UACC-62 melanoma): > 100 µM
TGI (UO-31 renal): > 100 µM

Cc1cnc2cc(Cl)ccc2c1NCCN(CC(C)C)CC(C)C
TGI (ACHN renal): > 100 µM
TGI (COLO 205 colon): > 100 µM
TGI (DMS 114 small cell lung): > 100 µM
TGI (HCC-2998 colon): > 100 µM
TGI (HCT-116 colon): > 100 µM
TGI (HL-60(TB) leukemia): > 100 µM
TGI (HOP-62 NSCLC): > 100 µM
TGI (HOP-92 NSCLC): 85.3 µM
TGI (HT29 colon): > 100 µM
TGI (IGROV1 ovarian): > 100 µM
TGI (KM12 colon): > 100 µM
TGI (KM20L2 colon): > 100 µM
TGI (LXFL 529 NSCLC): > 100 µM
TGI (M14 melanoma): > 100 µM
TGI (M19-MEL melanoma): > 100 µM
TGI (MOLT-4 leukemia): > 100 µM
TGI (NCI-H23 lung): > 100 µM
TGI (NCI-H460 lung): > 100 µM
TGI (NCI-H522 lung): > 100 µM
TGI (OVCAR-3 ovarian): > 100 µM
TGI (OVCAR-4 ovarian): > 100 µM
TGI (OVCAR-5 ovarian): > 100 µM
TGI (RPMI-8226 leukemia): > 100 µM
TGI (SF-268 CNS): > 100 µM
TGI (SF-295 CNS): > 100 µM
TGI (SF-539 CNS): > 100 µM
TGI (SK-MEL-2 melanoma): > 100 µM
TGI (SK-MEL-28 melanoma): > 100 µM
TGI (SK-OV-3 ovarian): > 100 µM
TGI (SNB-75 CNS): > 100 µM
TGI (SNB-78 CNS): > 100 µM
TGI (SR leukemia): > 100 µM
TGI (U251 CNS): > 100 µM
TGI (UACC-257 melanoma): > 100 µM
TGI (UACC-62 melanoma): > 100 µM
TGI (UO-31 renal): > 100 µM
